The subject of the test is Mayo PDX cells. The test can be described thus: Matrigel invasion assay. It counts as cell-based, human. The procedure:
Invasion status of cells was tested with Matrigel Boyden chamber assays (Fisher). 1×10^5 cells were plated on BD BioCoat Matrigel invasion chambers. 24 hours after treatment with drugs, invaded cells were stained with the HEMA-3 kit (Fisher). Invaded cells were counted in 4-5 random fields.
An equal number of cells (5×10^4) were seeded on Matrigel coated inserts, and were untreated (control vehicle) or stimulated with 50 ng/ml EGF for 24 hours, cells invading to the other side of the membrane were counted and presented as percentage cell invasion. […] A similar invasion assay was conducted on GBM26 cells (FIG. 2D). […] Cells were transfected with EGFR or scrambled siRNA for 48 hours before the invasion assay. A similar invasion assay was performed on GBM6 (FIG. 2G). […] Cells were transiently transfected with empty or EGFR wildtype (EGFRwt) overexpressing vector, and invasion assay was performed after 48 hours after transfection. […] Cells were treated with or without 50 ng/ml EGF for 48 hours before the assay. The Western blot images are representative of three independent biological replicates. Actin served as loading control. Data are represented as mean±SEM from three independent experiments. *P<0.05, **P<0.01, n.s. not significant, unpaired two-tailed Student's t-test.
FIG. 3C and FIG. 3D show the results of a Matrigel invasion assay of EGFR siRNA knockdown in GBM12 and GBM6 in response to EGF. Cells were treated with EGFR or scrambled siRNA for 48 hours, transfected cells were seeded on Matrigel coated inserts and were treated with or without 50 ng/ml EGF for 24 hours. […] Cells were transiently transfected with EGFRvIII expression or empty vector, invasion assay was performed 48 hours after transfection. […] Western blot images are representative of three independent biological replicates. Actin served as a loading control. Data are represented as mean±SEM from three independent experiments. […], **P<0.01, ***P<0.001, n.s. not significant, unpaired two-tailed t-test.

Molecules are shown by their SMILES.

On to `C#Cc1cccc(Nc2ncnc3cc(OCCOC)c(OCCOC)cc23)c1` [erlotinib, Erlotinib], for which the cell invasion entry (erlotinib 1 μM, 24 hours, GBM12, GBM26) is “suppressed the invasiveness” and the cell invasion result (erlotinib, 48 h) is listed as “returns to baseline”.

Source of the values: patent publication US20230075368A1, “IDENTIFICATION OF AN EGFR-BIN3 PATHWAY THAT ACTIVELY SUPPRESSES INVASION AND REDUCES TUMOR SIZE IN GLIOBLASTOMA” (The United States Govemment as represented by the …, priority 2020, published 2023).
